Experimental data: PubChem BioAssay (NCI)
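Compound exposure: 48 hours, 5 concentrations, 96-well plates. Here, GI50 denotes the concentration required for 50% inhibition of growth. TGI: concentration producing complete growth inhibition.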

Key:
Assay in all cases: NCI tumour cell line growth inhibition, 48 h
[1] = tested on: A549 NSCLC
[2] = tested on: DU-145 prostate
[3] = tested on: HCC-2998 colon
[4] = tested on: LOX IMVI melanoma
[5] = tested on: NCI-H226 lung
[6] = tested on: NCI-H23 lung
[7] = tested on: NCI-H522 lung
[8] = tested on: OVCAR-4 ovarian
[9] = tested on: RXF 393 renal
[10] = tested on: SK-MEL-5 melanoma

| SMILES | GI50 [1] | TGI [1] | GI50 [2] | TGI [2] | GI50 [3] | TGI [3] | GI50 [4] | TGI [4] | GI50 [5] | TGI [5] | GI50 [6] | TGI [6] | GI50 [7] | TGI [7] | GI50 [8] | TGI [8] | GI50 [9] | TGI [9] | GI50 [10] | TGI [10] |
| --- | --- | --- | --- | --- | --- | --- | --- | --- | --- | --- | --- | --- | --- | --- | --- | --- | --- | --- | --- | --- |
| Cc1cc(N/N=C/c2nc(-c3ccc(Br)cc3)oc2C)c2cc(Cl)ccc2n1 | > 100 µM | > 100 µM | > 100 µM | > 100 µM | > 100 µM | > 100 µM | > 100 µM | > 100 µM | > 100 µM | > 100 µM | > 100 µM | > 100 µM | > 100 µM | > 100 µM | > 100 µM | > 100 µM | > 100 µM | > 100 µM | > 100 µM | > 100 µM |
| C=CC(=O)N(C)[C@H]1C[C@H]2OC(C)(C1OC)n1c3ccccc3c3c4c(c5c6ccccc6n2c5c31)C(=O)NC4 (stereo not given in full) | 0.0938 µM | > 20 µM | 0.124 µM | 18.7 µM | 0.575 µM | 1.46 µM | 0.0823 µM | 0.67 µM | 0.0963 µM | 0.92 µM | 0.158 µM | 2.08 µM | 0.0839 µM | 0.565 µM | 0.0939 µM | > 50 µM | 0.0221 µM | 0.157 µM | 0.262 µM | 0.972 µM |
| CN(C)c1ccc(/C=C\c2cccc[n+]2C)cc1 | 1.73 µM | > 100 µM | 20.6 µM | > 100 µM | 3.68 µM | 39.2 µM | 5.31 µM | 36.6 µM | 12.2 µM | > 100 µM | 4.69 µM | > 100 µM | 10.2 µM | > 100 µM | 4.28 µM | 62.5 µM | 18.2 µM | > 100 µM | 2.99 µM | 11.6 µM |
| O=[N+]([O-])c1cccc(-c2nc3sccn3c2-c2ccnc(NCCCNS(=O)(=O)c3cccc(F)c3)n2)c1 | 2.68 µM | 24.3 µM | 2.6 µM | 12.9 µM | 6.79 µM | > 100 µM | 2.58 µM | 11 µM | 1.66 µM | 8.22 µM | 1.98 µM | 7.34 µM | 2.02 µM | 7.97 µM | 1.64 µM | 7.64 µM | 8.13 µM | 41.6 µM | 0.824 µM | 2.1 µM |
| CC(CN1CCN(CCOCCO)CC1)CN1c2ccccc2Sc2ccc(Cl)cc21 (stereo not given) | 3.05 µM | 12.4 µM | 5.05 µM | 17 µM | 1.91 µM | 3.51 µM | 1.74 µM | 3.27 µM | 11.5 µM | 36.8 µM | 10.8 µM | 24.2 µM | 1.71 µM | 3.36 µM | 4.22 µM | 16 µM | 1.58 µM | 4.85 µM | 1.69 µM | 3.07 µM |
| COC(=O)Cn1c2c(c3c(O)cccc31)C(=O)c1ccccc1-2 | > 100 µM | > 100 µM | > 100 µM | > 100 µM | > 100 µM | > 100 µM | > 100 µM | > 100 µM | > 100 µM | > 100 µM | > 100 µM | > 100 µM | > 100 µM | > 100 µM | > 100 µM | > 100 µM | > 100 µM | > 100 µM | > 100 µM | > 100 µM |
